Results as given in patent publication US12565490B2, “Inhibitors of Receptor Interacting Protein Kinase I for the treatment of disease” (Board of Regents, The University of Texas System, priority 2020, dated 2026).

Test system: human monocytic cell line U937
Experiment: Human U937 cellular necroptosis assay
Format: cell-based
Conditions: U-937; U937 cells stimulated with 25 ng/mL human TNFalpha and 25 μM z-VAD-FMK; 22 hr; viability by Cell Titer-Glo 2.0; read-out: hU937 IC50
Protocol: Human U937 Cellular Necroptosis Assay
The human monocytic cell line U937 (CRL-1593.2) may be purchased from ATCC. The cells are routinely maintained in RPMI-1640 Medium (Gibco, Catalog #11875-093) supplemented with 10% heat inactivated fetal bovine serum (Gibco, Catalog #16140-071), 100 units/mL penicillin and 100 μg/mL streptomycin (Gibco, Catalog #15140-122), in a humidified incubator (37° C., 5% CO2). For the assay, cells are resuspended in RPMI-1640 phenol red free Media (Gibco, Catalog #11835-030) supplemented with 10% fetal bovine serum (Sigma, Catalog #F2442), 100 units/mL penicillin and 100 ug/mL streptomycin. Cells are stimulated with 25 ng/mL human TNFalpha (Cell Sciences, Catalog #CSI15659B) and 25 μM z-VAD-FMK (R&D Systems, Catalog #FMK001) followed by seeding 5000 cells per well in a volume of 40 μL to a white, CulturPlate-384 (Perkin Elmer, Catalog #6007680). Stock solutions of the test compounds are prepared in 100% DMSO (Sigma, Catalog #D2650) and serially diluted 1:3 using 100% DMSO. Compounds are additionally diluted 1:40 in assay medium, and 10 μL/well was transferred to the plate. Following the compound addition, the plate is incubated at 37° C. and 5% CO2 for 22 hr. After 22 hr, viability is assessed with the addition of 20 μL of Cell Titer-Glo 2.0 (Promega, Catalog #G9243). The tissue culture plate is shaken on an orbital shaker at 300 RPM for 15 minutes at room temperature in the dark. Luminescence is measured using a PerkinElmer Envision™ plate reader. IC50 values are calculated using a four-parameter logistic curve fit using Genedata Screener software. Compounds disclosed herein are expected to have activity in this assay.

Structure (SMILES) | IC50 [nM]
Cc1cnc(C(=O)N[C@H]2COc3cccnc3N(C)C2=O)nc1-c1cccc(F)c1F [Example 59, (S)-4-(2,3-difluorophenyl)-5-methyl-N-(5-methyl-4-oxo-2,3,4,5-tetrahydropyrido[3,2-b]-[1,4]oxazepin-3-yl)pyrimidine-2-carboxamide] | 13.9
Cc1cnc(C(=O)N[C@H]2COc3cccnc3N(C)C2=O)nc1-c1ccc(F)cc1F [Example 60, (S)-4-(2,4-difluorophenyl)-5-methyl-N-(5-methyl-4-oxo-2,3,4,5-tetrahydropyrido[3,2-b]-[1,4]oxazepin-3-yl)pyrimidine-2-carboxamide] | 16.2
Cc1ccc(-c2nc(C(=O)N[C@H]3COc4cccnc4N(C)C3=O)ncc2C)c(F)c1 [Example 61, (S)-4-(2-fluoro-4-methylphenyl)-5-methyl-N-(5-methyl-4-oxo-2,3,4,5-tetrahydropyrido[3,2-b]-[1,4]oxazepin-3-yl)pyrimidine-2-carboxamide] | 16.1
Cc1ccc(-c2nc(C(=O)N[C@H]3COc4cccnc4N(C)C3=O)ncc2C)cc1F [Example 62, (S)-4-(3-fluoro-4-methylphenyl)-5-methyl-N-(5-methyl-4-oxo-2,3,4,5-tetrahydropyrido[3,2-b]-[1,4]oxazepin-3-yl)pyrimidine-2-carboxamide] | 10.4
Cc1cc(F)ccc1-c1ccnc(C(=O)N[C@H]2COc3cc(F)cnc3N(C)C2=O)n1 [Example 63, (S)-4-(4-fluoro-2-methylphenyl)-N-(8-fluoro-5-methyl-4-oxo-2,3,4,5-tetrahydropyrido[3,2-b]-[1,4]oxazepin-3-yl)pyrimidine-2-carboxamide] | 117
Cc1cc(F)cc(F)c1-c1ccnc(C(=O)N[C@H]2COc3cc(F)cnc3N(C)C2=O)n1 [Example 64, (S)-4-(2,4-difluoro-6-methylphenyl)-N-(8-fluoro-5-methyl-4-oxo-2,3,4,5-tetrahydropyrido[3,2-b]-[1,4]oxazepin-3-yl)pyrimidine-2-carboxamide] | 189
Cc1cccc(-c2ccnc(C(=O)N[C@H]3COc4cc(F)cnc4N(C)C3=O)n2)c1 [Example 65, (S)-N-(8-fluoro-5-methyl-4-oxo-2,3,4,5-tetrahydro-pyrido[3,2-b][1,4]oxazepin-3-yl)-4-(m-tolyl)pyrimidine-2-carboxamide] | 177
CN1C(=O)[C@@H](NC(=O)c2ncc(F)c(-c3ccc(F)cc3)n2)COc2cc(F)cnc21 [Example 66, (S)-5-fluoro-N-(8-fluoro-5-methyl-4-oxo-2,3,4,5-tetrahydropyrido[3,2-b]-[1,4]oxazepin-3-yl)-4-(4-fluorophenyl)pyrimidine-2-carboxamide] | 106
Cc1cc(F)ccc1-c1nc(C(=O)N[C@H]2COc3cc(F)cnc3N(C)C2=O)ncc1F [Example 67, (S)-5-fluoro-4-(4-fluoro-2-methylphenyl)-N-(8-fluoro-5-methyl-4-oxo-2,3,4,5-tetrahydropyrido[3,2-b]-[1,4]oxazepin-3-yl)pyrimidine-2-carboxamide] | 24.7
CN1C(=O)[C@@H](NC(=O)c2ncc(Cl)c(-c3ccccc3)n2)COc2cc(F)cnc21 [Example 69, (S)-5-chloro-N-(8-fluoro-5-methyl-4-oxo-2,3,4,5-tetrahydropyrido[3,2-b]-[1,4]oxazepin-3-yl)-4-phenylpyrimidine-2-carboxamide] | 7.41
CN1C(=O)[C@@H](NC(=O)c2ncc(Cl)c(-c3cccc(F)c3)n2)COc2cc(F)cnc21 [Example 70, (S)-5-chloro-N-(8-fluoro-5-methyl-4-oxo-2,3,4,5-tetrahydropyrido[3,2-b]-[1,4]oxazepin-3-yl)-4-(3-fluorophenyl)pyrimidine-2-carboxamide] | 9.94
CN1C(=O)[C@@H](NC(=O)c2ncc(Cl)c(-c3ccc(F)cc3)n2)COc2cc(F)cnc21 [Example 71, (S)-5-chloro-N-(8-fluoro-5-methyl-4-oxo-2,3,4,5-tetrahydropyrido[3,2-b]-[1,4]oxazepin-3-yl)-4-(4-fluorophenyl)pyrimidine-2-carboxamide] | 8.83
CN1C(=O)[C@@H](NC(=O)c2ncc(Cl)c(-c3cccc(F)c3F)n2)COc2cc(F)cnc21 [Example 72, (S)-5-chloro-4-(2,3-difluorophenyl)-N-(8-fluoro-5-methyl-4-oxo-2,3,4,5-tetrahydropyrido[3,2-b]-[1,4]oxazepin-3-yl)pyrimidine-2-carboxamide] | 25.5
CN1C(=O)[C@@H](NC(=O)c2ncc(Cl)c(-c3ccc(F)cc3F)n2)COc2cc(F)cnc21 [Example 73, (S)-5-chloro-4-(2,4-difluorophenyl)-N-(8-fluoro-5-methyl-4-oxo-2,3,4,5-tetrahydropyrido[3,2-b]-[1,4]oxazepin-3-yl)pyrimidine-2-carboxamide] | 11.4
CN1C(=O)[C@@H](NC(=O)c2ncc(Cl)c(-c3cc(F)ccc3F)n2)COc2cc(F)cnc21 [Example 74, (S)-5-chloro-4-(2,5-difluorophenyl)-N-(8-fluoro-5-methyl-4-oxo-2,3,4,5-tetrahydropyrido[3,2-b]-[1,4]oxazepin-3-yl)pyrimidine-2-carboxamide] | 11
CN1C(=O)[C@@H](NC(=O)c2ncc(Cl)c(-c3ccc(F)c(F)c3)n2)COc2cc(F)cnc21 [Example 75, (S)-5-chloro-4-(3,4-difluorophenyl)-N-(8-fluoro-5-methyl-4-oxo-2,3,4,5-tetrahydropyrido[3,2-b]-[1,4]oxazepin-3-yl)pyrimidine-2-carboxamide] | 11.9
CN1C(=O)[C@@H](NC(=O)c2ncc(Cl)c(-c3cc(F)cc(F)c3)n2)COc2cc(F)cnc21 [Example 76, (S)-5-chloro-4-(3,5-difluorophenyl)-N-(8-fluoro-5-methyl-4-oxo-2,3,4,5-tetrahydropyrido [3,2-b]-[1,4]oxazepin-3-yl)pyrimidine-2-carboxamide] | 16.5
Cc1ccc(-c2nc(C(=O)N[C@H]3COc4cc(F)cnc4N(C)C3=O)ncc2Cl)c(F)c1 [Example 77, (S)-5-chloro-4-(2-fluoro-4-methylphenyl)-N-(8-fluoro-5-methyl-4-oxo-2,3,4,5-tetrahydropyrido[3,2-b]-[1,4]oxazepin-3-yl)pyrimidine-2-carboxamide] | 9.14
Cc1ccc(-c2nc(C(=O)N[C@H]3COc4cc(F)cnc4N(C)C3=O)ncc2Cl)cc1F [Example 78, (S)-5-chloro-4-(3-fluoro-4-methylphenyl)-N-(8-fluoro-5-methyl-4-oxo-2,3,4,5-tetrahydropyrido[3,2-b]-[1,4]oxazepin-3-yl)pyrimidine-2-carboxamide] | 8.3
Cc1cc(-c2nc(C(=O)N[C@H]3COc4cc(F)cnc4N(C)C3=O)ncc2Cl)ccc1F [Example 79, (S)-5-chloro-4-(4-fluoro-3-methylphenyl)-N-(8-fluoro-5-methyl-4-oxo-2,3,4,5-tetrahydropyrido[3,2-b]-[1,4]oxazepin-3-yl)pyrimidine-2-carboxamide] | 18.9
CN1C(=O)[C@@H](NC(=O)c2ncc(Cl)c(-c3ccccc3Cl)n2)COc2cc(F)cnc21 [Example 80, (S)-5-chloro-4-(2-chlorophenyl)-N-(8-fluoro-5-methyl-4-oxo-2,3,4,5-tetrahydropyrido[3,2-b]-[1,4]oxazepin-3-yl)pyrimidine-2-carboxamide] | 15.2
CN1C(=O)[C@@H](NC(=O)c2ncc(Cl)c(-c3cccc(Cl)c3)n2)COc2cc(F)cnc21 [Example 81, (S)-5-chloro-4-(3-chlorophenyl)-N-(8-fluoro-5-methyl-4-oxo-2,3,4,5-tetrahydropyrido[3,2-b]-[1,4]oxazepin-3-yl)pyrimidine-2-carboxamide] | 29.6
CN1C(=O)[C@@H](NC(=O)c2ncc(Cl)c(-c3ccc(Cl)cc3)n2)COc2cc(F)cnc21 [Example 82, (S)-5-chloro-4-(4-chlorophenyl)-N-(8-fluoro-5-methyl-4-oxo-2,3,4,5-tetrahydropyrido[3,2-b]-[1,4]oxazepin-3-yl)pyrimidine-2-carboxamide] | 13.6
Cc1cccc(-c2nc(C(=O)N[C@H]3COc4cc(F)cnc4N(C)C3=O)ncc2Cl)c1 [Example 83, (S)-5-chloro-N-(8-fluoro-5-methyl-4-oxo-2,3,4,5-tetrahydropyrido[3,2-b]-[1,4]oxazepin-3-yl)-4-(m-tolyl)-pyrimidine-2-carboxamide] | 15.1
CN1C(=O)[C@@H](NC(=O)c2ncc(Cl)c(-c3cccc(C#N)c3)n2)COc2cc(F)cnc21 [Example 84, (S)-5-chloro-4-(3-cyanophenyl)-N-(8-fluoro-5-methyl-4-oxo-2,3,4,5-tetrahydropyrido[3,2-b]-[1,4]oxazepin-3-yl)pyrimidine-2-carboxamide] | 33.5
CN1C(=O)[C@@H](NC(=O)c2ncc(Cl)c(-c3ncccc3F)n2)COc2cc(F)cnc21 [Example 85, (S)-5-chloro-N-(8-fluoro-5-methyl-4-oxo-2,3,4,5-tetrahydropyrido[3,2-b]-[1,4]oxazepin-3-yl)-4-(3-fluoropyridin-2-yl)pyrimidine-2-carboxamide] | 611
